From ChEMBL document CHEMBL3046783, “Synthesis of pyrimidine and condensed pyrimidine derivatives and their evaluation for anti-inflammatory activity” (2012)

Test system: Rattus norvegicus
Assay: Anti-inflammatory activity in Rattus norvegicus albino (rat) assessed as inhibition of carrageenan-induced paw edema at 50 mg/kg, po administered 30 min before carrageenan challenge measured after 1 to 3 hr by plethysmometer analysis
Type: functional

Structure (SMILES): CC1=CC(C)(C)NC(=S)N1Cc1ccncc1
- inhibition in vivo at 50 mg/kg: 25%

Structure (SMILES): CC1=CC(C)(C)NC(=S)N1CC1CCCO1 (stereo not given)
- inhibition in vivo at 50 mg/kg: 18%

Structure (SMILES): CC1=CC(C)(C)NC(=S)N1CCc1c[nH]c2ccccc12
- inhibition in vivo at 50 mg/kg: 30%

Structure (SMILES): CC1=CC(C)(C)NC(=S)N1c1cc(C#N)ccc1N
- inhibition in vivo at 50 mg/kg: 32%

Structure (SMILES): CC1=CC(C)(C)NC(=S)N1c1cc(Br)ccc1N
- inhibition in vivo at 50 mg/kg: 31%

Structure (SMILES): CC1=CC(C)(C)NC(=S)N1c1cc(C)ccc1O
- inhibition in vivo at 50 mg/kg: 27%

Structure (SMILES): CC1C=CN(CCc2c[nH]c3ccccc23)C(=S)N1 (stereo not given)
- inhibition in vivo at 50 mg/kg: 25%

Structure (SMILES): CC1(C)CC2(C)Nc3ccc(C#N)cc3N2C(=S)N1 (stereo not given)
- inhibition in vivo at 50 mg/kg: 39%

Structure (SMILES): CC1(C)CC2(C)Nc3ccc(Br)cc3N2C(=S)N1 (stereo not given)
- inhibition in vivo at 50 mg/kg: 24%

Structure (SMILES): CC1CC2Nc3ccc(Br)cc3N2C(=S)N1 (stereo not given)
- inhibition in vivo at 50 mg/kg: 27%

Structure (SMILES): Cc1cccc2c1N1C(=S)NC(C)CC1N2 (stereo not given)
- inhibition in vivo at 50 mg/kg: 0%

Structure (SMILES): CC1(C)CC(C)(O)N(Cc2ccncc2)C(=S)N1 (stereo not given)
- inhibition in vivo at 50 mg/kg: 27%

Structure (SMILES): CC1(C)CC(C)(O)N(CCN2CCCC2)C(=S)N1 (stereo not given)
- inhibition in vivo at 50 mg/kg: 8%

Structure (SMILES): CC1(C)CC(C)(O)N(CCN2CCOCC2)C(=S)N1 (stereo not given)
- inhibition in vivo at 50 mg/kg: 35%

Structure (SMILES): CC1CC(O)N(Cc2ccncc2)C(=S)N1 (stereo not given)
- inhibition in vivo at 50 mg/kg: 30%

Structure (SMILES): CC1CC(O)N(CCN2CCCC2)C(=S)N1 (stereo not given)
- inhibition in vivo at 50 mg/kg: 30%

Structure (SMILES): CC1CC(O)N(CCN2CCOCC2)C(=S)N1 (stereo not given)
- inhibition in vivo at 50 mg/kg: 38%

Structure (SMILES): CC1CC(O)N(CC2CCCO2)C(=S)N1 (stereo not given)
- inhibition in vivo at 50 mg/kg: 18%

Structure (SMILES): CC1CC(O)N(CCN2CCCCC2)C(=S)N1 (stereo not given)
- inhibition in vivo at 50 mg/kg: 29%

Structure (SMILES): CC(C)Cc1ccc(C(C)C(=O)O)cc1 (stereo not given) [IBUPROFEN]
- inhibition in vivo at 50 mg/kg: 39%
